# Entries after “also recorded” stand apart in the source; their conditions may differ.
# Key:
# [1] = Study 2 (09-3494): toxicity observations; type: in vivo, Balb/c mice; details: ixabepilone 3 mg/kg, capecitabine 360 mg/kg, antibody 10 mg/kg
# subcutaneous 4T1 tumors [2] = test: Study 1 (09-3493): primary tumor growth, survival and time to endpoint in the syngeneic SQ 4T1 model; details: for effect on SQ 4T1 primary tumor growth: antibody 10 mg/kg IP 3x/week, ixabepilone 6 mg/kg IV Q4Dx3, capecitabine 360 mg/kg oral QDx14
# Excerpt: • Time points: Day 0: Investigators inject 50,000 4T1 cells+[…] ® subcutaneously in the right flank • Day 3: Investigators begin 2-3×/week tumor measurements • Day 6: DCM Staff begin antibody dosing IP 3×/week • DCM Staff begin ixabepilone dosing IV Q4D×3 • DCM Staff begin capecitabine dosing by oral gavage QD×14 • Animals were sacrificed when the primary tumors reached a volume of 2000 mm^3 or prior to the study takedown if they presented with moribund conditions (lack of grooming, labored breathing, cachexia, anorexia, or lethargy).
# On Day 0, 150 twelve week-old female BALB/c mice each received subcutaneous injections of 50,000 4T1 cells in […] ® in the right flank. Tumor-bearing mice were routinely monitored and regular tumor measurements 2-3×/week were conducted beginning on Day 6. Tumor volume was determined using the following formula: Tumor Volume=Length×Width^2×0.52
# Six days after tumor cell injection, when tumor volumes averaged 80 mm^3, the animals were size-matched and divided into twelve treatment groups of ten mice each. […] At this point investigators were blinded to treatment group designations and therapeutic administration was initiated. All mice received 10 mg/kg of either 1D11, 13C4 or antibody vehicle administered in 100 μl IP three times per week (Table 1). Specific cohorts of mice received additional treatments of ixabepilone (6 mg/kg in 200□1 IV Q4D×3), capecitabine (360 mg/kg in 100 μl by oral gavage QD×14) or both.
# Mice were sacrificed once primary tumor volumes reached 2000 mm^3 or greater or if the tumors became ulcerated>20% of the tumor's surface area, or if the animals presented with moribund conditions (lack of grooming, labored breathing, cachexia, anorexia or lethargy). Upon sacrifice, gross necropsies were performed and tumors, lungs and other tissues bearing metastases were harvested.
# subcutaneous 4T1 tumors [3] = test: Study 3 (09-4255): primary tumor growth in the SQ 4T1 model; type: in vivo, BALB/c mice; details: for effect on SQ 4T1 primary tumor growth: antibody IP 3x/week, ixabepilone 3 mg/kg IV every four days x3, capecitabine 360 mg/kg oral 14 days; for day cohort reached size endpoint (mean tumor volume 1500 mm^3): per cohort
# Excerpt: The remaining 30 animals were included into a companion experiment to this study, looking for the effects of 1D11 on macrophage recruitment and activity (see below).
# An entire cohort of mice was sacrificed when the average tumor volume for a single group within that cohort reached […] or greater.
# subcutaneous 4T1 tumors [4] = test: Study 2 (09-3494): primary tumor growth in the SQ 4T1 model; type: in vivo, Balb/c mice; details: for effect on SQ 4T1 primary tumor growth / tumor volume: antibody 10 mg/kg IP 3x/week, ixabepilone 3 mg/kg IV Q4Dx3, capecitabine 360 mg/kg oral QDx14, to Day 23
# Excerpt: Treatment groups, time points, and tissues were similar to the study described above.
# For proper analysis of metastasis, all mice were sacrificed on study Day 23. […] The primary tumor was bisected, with one half frozen in OCT and the other half stored in RNALATER™ for qPCR analysis. The lungs were fixed in zinc-buffered formalin for enumeration of pulmonary mets and subsequent IHC analysis.
# [5] = tested on: 4T1 experimental metastases; test: 4T1 model of experimental metastasis (intracardiac injection); type: in vivo, mouse; details: 4T1 cells injected into left ventricle of the heart
# Excerpt: 1D11 was combined with paclitaxel in both a xenograft (MDA-MB-231) breast cancer model and the syngeneic 4T1 model of breast cancer. […] The MDA-MB-231 and 4T1 models were also used to test combinatorial therapies with 1D11 and the platinum compounds cisplatin or carboplatin.
# [6] = Study 1 (09-3493): treatment-related adverse events; type: in vivo; details: ixabepilone 6 mg/kg, capecitabine 360 mg/kg, antibody 10 mg/kg
# Excerpt: • Time points: Day 0: Investigators inject 50,000 4T1 cells+[…] ® subcutaneously in the right flank • Day 3: Investigators begin 2-3×/week tumor measurements • Day 6: DCM Staff begin antibody dosing IP 3×/week • DCM Staff begin ixabepilone dosing IV Q4D×3 • DCM Staff begin capecitabine dosing by oral gavage QD×14 • Animals were sacrificed when the primary tumors reached a volume of 2000 mm^3 or prior to the study takedown if they presented with moribund conditions (lack of grooming, labored breathing, cachexia, anorexia, or lethargy). After sacrifice, the primary tumor was halved with one half embedded in OCT, and the other placed in zinc buffered formalin. The lungs and any other tissues bearing metastases were harvested and stored in zinc buffered formalin for enumeration of lung mets and IHC. • Tissues: Primary tumors m OCT and zinc buffered formalin, lungs harvested in zinc buffered formalin for assessment of metastasis and subsequent IHC.
# Mice were sacrificed once primary tumor volumes reached 2000 mm^3 or greater or if the tumors became ulcerated>20% of the tumor's surface area, or if the animals presented with moribund conditions (lack of grooming, labored breathing, cachexia, anorexia or lethargy). Upon sacrifice, gross necropsies were performed and tumors, lungs and other tissues bearing metastases were harvested. […]
SMILES,toxicity during dosing [1],effect on SQ 4T1 primary tumor growth (subcutaneous 4T1 tumors [2]),effect on SQ 4T1 primary tumor growth (subcutaneous 4T1 tumors [3]),day cohort reached size endpoint (mean tumor volume 1500 mm^3) (subcutaneous 4T1 tumors [3]) [study day],"average size of the tumors at the time of study take down (subcutaneous 4T1 tumors [4]; Day 23, average of cohort (vehicle, 13C4 or 1D11 plus the chemotherapeutic)) [mm^3]",effect on SQ 4T1 primary tumor growth / tumor volume (subcutaneous 4T1 tumors [4]),inhibition of metastases [5],treatment-related toxicities [6],"survival (subcutaneous 4T1 tumors [2]; same dosing, sacrifice at tumor volume 2000 mm^3 or moribund)"
CCCCCOC(=O)Nc1nc(=O)n([C@@H]2O[C@H](C)[C@@H](O)[C@H]2O)cc1F [capecitabine],no toxicity issues observed,did inhibit tumor growth; also recorded: Inhibition of tumor growth; also recorded: inhibited 4T1 tumor growth but was not as efficacious as ixabepilone,very modest tumor growth inhibition; also recorded: Inhibition of tumor growth; also recorded: inhibited 4T1 tumor growth slightly,27,~700,trend towards inhibited growth of the primary tumors; also recorded: Inhibition of tumor growth,–,–,–
N.N.[Cl][Pt][Cl] [cisplatin],–,–,–,–,–,–,able to inhibit metastases particularly to the bone,–,–
C/C(=C\c1csc(C)n1)[C@@H]1C[C@@H]2O[C@]2(C)CCC[C@H](C)[C@H](O)[C@@H](C)C(=O)C(C)(C)[C@@H](O)CC(=O)N1 [ixabepilone],no toxicity issues observed; also recorded: no animals in the study displayed signs of toxicity,most efficacious at inhibiting 4T1 tumor growth compared to either antibody therapy or capecitabine; also recorded: Inhibition of tumor growth,most efficacious at inhibiting 4T1 tumor growth as a monotherapy; also recorded: Inhibition of tumor growth,29,–,significant reduction in tumor volume; also recorded: Inhibition of tumor growth,–,some peripheral neuropathy,greater than that of either the antibody or the capecitabine cohorts

# — US10507242B2, “Combination therapy for treating breast cancer” (Genzyme Corporation, priority 2010, dated 2019)
